The nature of one data set: in vivo. Conditions: male, Sprague-Dawley (SD), rat, plasma, iv, 1 mg/kg.
For data set [1] the following is noted: cited from earlier work.
The conditions of data set [2]: subcutaneously twice daily at 90 mg per dose; cited from earlier work.
The conditions of data set [3]: intravenous 1 mg/kg, male SD rats, n = 2; plasma by sandwich ELISA; PK Solver.
Method: (§2) Four male SD rats weighing approximately 200 g each were obtained from the Shanghai Medical School Animal Center and were used for the half-life assay. […] After injection, blood samples were acquired from rat orbit at several time points (8 and 30 min and 1.5, 3, 6, 9, 12 and 24 h after peptide injection) and placed in clean tubes. […] Then, HRP-labeled rabbit-anti-mouse IgG (Sigma, USA) and TMB were added in order. Absorbance at 450 nm was determined by an ELISA reader (Ultra 384, Tecan). The standard peptide parameters were obtained first. Then, the plasma peptide concentrations were determined as a function of time and the half-life was calculated by using PK Solver for Microsoft Excel to obtain pharmacokinetic parameters.
The test system of a further data set is proteinase K. The experiment in a line: in vitro. Conditions: proteinase K in PBS, pH 7.2. How it is done:
Chromatographic analyses were performed using an ODS-C8 column (5 μm, 100 mm × 2.0 mm ID) kept at ambient temperature. The mobile phase was composed of acetonitrile-water-formic acid in the ratio of 50:50:0.1 (v/v/v) at a flow rate of 0.3 mL/min. The sample injection volume was 10 μL. Acetonitrile was HPLC grade and other chemical reagents and solvents were analytical grade. A Thermo TSQ Quantum Discovery MAX triple-quadruple tandem mass spectrometer equipped with ESI source (San Jose, CA) and Surveyor LC pump were used for LC-MS analysis. Data acquisition and data processing were performed by using Xcalibur software and LCQuan 2.0 data analysis program (Thermo Finnigan), respectively. Optimized MS parameters were as below: 4800 V spray voltage, 40.0 psi sheath gas pressure, 1.0 psi auxiliary valve flow and 300 °C of capillary temperature. When running collision-induced dissociation (CID), the pressure was set to 1.5 mTorr.
The peptides (10 μg/mL) were prepared in PBS pH 7.2 containing 20 ng/ml proteinase K. The resulting mixture were incubated at 37 °C in a water bath and taken out at different time intervals (0, 5, 15, 30, 60, 120 minutes), followed by quenching the samples with ethyl alcohol and quantitating the peptides by LC-MS analysis as described above.

A further data set addresses T1, N36 (gp41 NHR peptide) (Human immunodeficiency virus type 1 group M subtype B, UniProt P04578).
T1 construct: gp41 NHR (“N36”, 546-581); made in house; host or cells: chemical solid-phase FMOC synthesis
In words: CD spectroscopy and thermal midpoint analysis of peptide/N36 complexes. It counts as physicochemical, HIV-1. How it is done: Briefly, each peptide or peptide mixture was dissolved in phosphate-buffered saline (PBS: 50 mM sodium phosphate and 150 mM NaCl, pH 7.2) at the final concentration of 10 μM and incubated at 37 °C for 30 min before cooling down to 4 °C. The CD spectra of each sample were acquired on a Jasco spectropolarimeter (Model J-815, Jasco Inc., Japan) at 4 °C using a 5 nm bandwidth, 0.1 nm resolution, 0.1 cm path length and an average time of 5.0 sec. Spectra were corrected by the subtraction of a blank corresponding to the solvent composition of each sample. Thermal midpoint analysis was used to determine the temperature at which 50% of the 6-HB formed by the CHR and NHR would decompose. It was monitored at 222 nm from 4 °C to 98 °C by applying a thermal gradient of 5 °C/min. The melting curve was smoothed and the midpoint of the thermal unfolding transition (Tm) values was calculated using Jasco software utilities as described above.

The next data set has as its system 93BR020 (F). It counts as cell-based. Conditions: primary HIV-1 isolate, subtype F; read-out: IC50 (nM), infection by primary isolate 93BR020 (F).
In the next data set the test system is 92UG024 (D). It counts as cell-based. The settings on record: primary HIV-1 isolate, subtype D; read-out: IC50 (nM), infection by primary isolate 92UG024 (D).
For data set [4], the system named is T20-resistant HIV-1 variant V38E/N42S. It counts as cell-based.
The subject of another data set is 92TH009 (A/E). The settings on record: read-out: IC50 (nM), infection by primary isolate 92TH009 (A/E); primary HIV-1 isolate, subtype A/E.
Data set [5] concerns preexisting antibodies in sera from HIV-1-infected patients. In words: Sandwich ELISA: cross-reactivity of peptides with preexisting antibodies in HIV-1-infected patients. It counts as binding, human. The settings on record: peptide coated at 10 μg/ml, serially diluted sera, 37 °C 1 h, A450. How it is done: A sandwich ELISA was conducted to determine the cross-reactivity of the peptides with the preexisting antibodies in HIV-1-infected patients. […] The wells were then blocked with 1% gelatin, followed by addition of 50 μl of serially diluted sera from HIV-1-infected patients and incubation at 37 °C for 1 h. Then, HRP-labeled goat-anti-human IgG (Abcam, UK) and TMB were added sequentially. A450 was determined with an ELISA reader (Ultra 384, Tecan).

For another data set, the system named is 92UG029 (A). The settings on record: read-out: IC50 (nM), infection by primary isolate 92UG029 (A); primary HIV-1 isolate, subtype A.
Data set [6] concerns T20-resistant HIV-1 variant V38A/N42D. It counts as cell-based.
The test system of data set [7] is HIV-1IIIB (subtype B, X4). In words: Inhibition of HIV-1 IIIB infection by peptides in the presence of sera from HIV-1-infected patients. It counts as cell-based. Conditions: for IC50: MT-2 cells, triplicate, mean ± SD. How it is done: Inhibition of peptides on HIV-1IIIB (subtype B, X4)infection in the presence of HIV-1-infected patients’ sera was determined as previously described. Briefly, each peptide was mixed with serially diluted serum from an HIV-1-infected patient at room temperature for 30 min. Next, the mixture of peptide/serum and HIV-1 (100 TCID50) were added to MT-2 cells (1 × 10^5/ml) in RPMI 1640 medium containing 10% FBS. After incubation at 37 °C overnight, the culture supernatants were replaced with fresh culture medium.

For the next data set, the system named is HIV-1Bal (subtype B, R5). The settings on record: read-out: IC50, inhibition of infection by HIV-1Bal; M7 cells, 100 TCID50, p24 ELISA day 7; triplicate, repeated twice. The text has this:
(§1) Then, the culture supernatants were changed to fresh media. On the fourth day post-infection, culture supernatants were collected for detection of p24 antigen by ELISA. […] Then, the culture supernatants were changed to fresh media. On the fourth day post-infection, the culture supernatants were discarded and fresh media were complemented again. The supernatants were collected on the seventh day post-infection and tested for p24 antigen by ELISA as previously described. The percent inhibition of p24 production was calculated.

Data set [8] deals with HIV-1IIIB (subtype B, X4). Conditions: read-out: IC50, inhibition of infection by HIV-1IIIB; MT-2 cells, 100 TCID50, p24 ELISA day 4; triplicate, repeated twice.
Excerpt: as §1
On the technique in general: An ELISA detects its analyte on a solid surface through an enzyme-linked reagent.

The subject of data set [9] is T20-resistant HIV-1 variant N42T/N43K. It counts as cell-based.
The next data set concerns NP1525 (A/E). It counts as cell-based. Conditions: primary HIV-1 isolate, subtype A/E; read-out: IC50 (nM), infection by primary isolate NP1525 (A/E).
In data set [10] the test system is T20-resistant HIV-1 variant V38A. It counts as cell-based.
Data set [11] relates to T20-resistant HIV-1 variant V38A/N42T. It counts as cell-based.
The subject of a further data set is 94US_33931N (B). Conditions: read-out: IC50 (nM), infection by primary isolate 94US_33931N (B); primary HIV-1 isolate, subtype B.
The subject of another data set is BCF020 (Group O). The settings on record: read-out: IC50 (nM), infection by primary isolate BCF020 (Group O), primary HIV-1 isolate.
The subject of a further data set is 93IN101 (C). The settings on record: read-out: IC50 (nM), infection by primary isolate 93IN101 (C); primary HIV-1 isolate, subtype C.

Read-outs that look alike come from different tables or passages of the source. Where a SMILES comes first, the peptide text is derived from it.

T1 sequence (P04578 546-581): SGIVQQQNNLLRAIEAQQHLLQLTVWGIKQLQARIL
Method for in vivo: as §2

Turning to enfuvirtide, in “in vivo”, the MRT amounted to 2.27 h and the half-life was 1.57 h. Moreover, in data set [1], the half-life in plasma result is “about 2 h”. The injection-site reactions entry in data set [2] is listed as “often causing serious injection-site reactions”. For the same molecule, the Cmax in data set [3] amounted to 314.80 µg/mL. Also, the fraction remaining at 2 h, 10 μg/mL with proteinase K amounted to 29%.
Consider `CC[C@H](C)[C@H](NC(=O)[C@H](CO)NC(=O)[C@H](CCC(=O)O)NC(=O)[C@H](CCC(=O)O)NC(=O)[C@H](CCC(N)=O)NC(=O)[C@H](CCCCN)NC(=O)[C@H](CCCCN)NC(=O)[C@@H](NC(=O)[C@H](CCC(N)=O)NC(=O)[C@H](CCC(=O)O)NC(=O)[C@H](CCC(=O)O)NC(=O)[C@@H](NC(=O)[C@H](CCCCN)NC(=O)[C@H](CCCCN)NC(=O)[C@@H](NC(=O)[C@H](CC(C)C)NC(=O)[C@H](CCC(=O)O)NC(=O)[C@H](CCC(=O)O)NC(=O)[C@H](CO)NC(=O)[C@H](CCCCN)NC(=O)[C@H](CCCCN)NC(=O)[C@@H](NC(=O)[C@H](CC(C)C)NC(=O)[C@H](CCC(=O)O)NC(=O)[C@H](CCC(=O)O)NC(=O)[C@@H](NC(=O)[C@H](CCCCN)NC(=O)[C@H](CCCCN)NC(=O)[C@H](CC(=O)O)NC(=O)[C@H](Cc1c[nH]c2ccccc12)NC(=O)[C@H](CCC(=O)O)NC(=O)[C@H](CCC(=O)O)NC(=O)[C@H](Cc1c[nH]c2ccccc12)NC(C)=O)[C@@H](C)CC)[C@@H](C)CC)[C@@H](C)CC)[C@@H](C)CC)[C@@H](C)CC)C(=O)N[C@@H](CCCCN)C(=O)N[C@@H](CCCCN)C(N)=O` [AP2] (Ac-WEEWDKKIEELIKKSEELIKKIEEQIKKQEESIKK-NH2), for which the MRT in the data set “in vivo” turned out to be 7.57 h. The same molecule had a half-life in “in vivo” of 5.25 h. At N36 (gp41 NHR peptide) (CD thermal denaturation at 222 nm, 4 to 98 °C, 5 °C/min, 10 μM in PBS pH 7.2), the “Tm of complex with N36” value is 82.3 ^oC. Also, the “α-helix content of complex with N36” value at N36 (gp41 NHR peptide) (CD, peptide/N36 mixture 10 μM in PBS pH 7.2, 4 °C) is reported as 69.51%. Also, the IC50 in the data set on 93BR020 (F) was 42.7 ± 1.4 nM; with 92UG024 (D), 34.5 ± 2.3 nM; in data set [4] it was 87.4 ± 5.26 nM; with 92TH009 (A/E), 50 ± 4.5 nM; with 92UG029 (A), 39.9 ± 4.2 nM; in [6], 63.5 ± 6.37 nM. The IC50 in data set [7] (in presence of serum of HIV-1-infected patient HPS-1, read-out: IC50 (nM), HIV-1 IIIB infection, HPS-1) was 24.3 ± 10.2 nM; in [7] (in presence of serum of HIV-1-infected patient HPS-2, read-out: IC50 (nM), HIV-1 IIIB infection, HPS-2), 30.3 ± 4.2 nM; in data set [7] (in presence of serum of HIV-1-infected patient HPS-3, read-out: IC50 (nM), HIV-1 IIIB infection, HPS-3), 78.3 ± 8.6 nM; in data set [7] (in presence of serum of HIV-1-infected patient HPS-4, read-out: IC50 (nM), HIV-1 IIIB infection, HPS-4), 35.1 ± 2.3 nM; in data set [7] (in presence of serum of HIV-1-infected patient HPS-5, read-out: IC50 (nM), HIV-1 IIIB infection, HPS-5), 69.3 ± 3.2 nM; in the data set on HIV-1Bal (subtype B, R5), 50 nM. Besides, the IC50 amounted to 23.1 nM in data set [8]; 72.7 ± 7.53 nM in data set [9]; 65.6 ± 10.9 nM with NP1525 (A/E); 41.4 ± 8.65 nM in [10]; 262 ± 5.63 nM in data set [11]; 38 ± 12.5 nM in the data set with 94US_33931N (B). The IC50 with BCF020 (Group O) stood at 47.1 ± 2.1 nM; with 93IN101 (C), 35.6 ± 0.9 nM. The molecule also gave a Cmax in data set [3] of 667.43 µg/mL. For the same molecule, the “reactivity with antibodies in sera from five HIV-1-infected patients” value in [5] is “none of the three artificial peptides AP1, AP2 and AP3 was recognized”. For the same molecule, the “Fold change of IC50, HPS-1” value in data set [7] (HPS-1 relative to N) was 0.5. The “Fold change of IC50, HPS-2” value in data set [7] (HPS-2 relative to N) came to 0.7. Moreover, the “Fold change of IC50, HPS-3” value in data set [7] (HPS-3 relative to N) was 1.7. Besides, the “Fold change of IC50, HPS-4” value in data set [7] (HPS-4 relative to N) is 0.8. For the same molecule, in data set [7] (HPS-5 relative to N), the “Fold change of IC50, HPS-5” value came to 1.5.

The MRT is a mean duration of stay, worked out from the concentration-time curve. The half-life is how long it takes for the measured level to halve. The low end stands for fast loss, the high end for slow loss. One may read the Cmax as the maximum level reached in the sampled fluid or tissue. By fraction remaining is commonly meant the share of the starting amount still present when the sample was taken. A low value points to a greater loss.

(Values after publication PMC4541410 (Scientific Reports, 2015).)
